Results taken from patent US20260053932A1, “COMPOUNDS AND METHODS FOR THE TARGETED DEGRADATION OF ANDROGEN RECEPTOR AND ASSOCIATED METHODS OF USE” (Arvinas Operations, Inc., priority 2020, published 2026).

Each molecule was assayed on androgen receptor (AR) in LNCaP and/or VCaP cells (assay: Androgen Receptor ELISA assay (AR degradation)). Details: LNCaP and/or VCaP cells; 5 hours incubation; media with R1881; read-out: DC50 Code* (degradation of AR ELISA).
Assay type: cell-based
How it was run: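 VCaP cells grown ≥3 days, then treated 5 h with compound in media containing 1 nM R1881 (10× stock). Cells lysed and AR quantified by sandwich ELISA (mouse AR detection Ab, HRP anti-mouse, TMB). DC50 and Dmax derived from AR degradation.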

| DC50 [nM] | Structure (SMILES) |
| --- | --- |
| < 1 | CC1(N2C(=O)c3cc(F)c(N4CCN(CC5CCN(c6ccc(C(=O)N[C@H]7CC[C@H](Oc8ccc(C#N)c(Cl)c8)CC7)nn6)CC5)CC4)cc3C2=O)CCC(=O)NC1=O (stereo partly shown) [Compound 69, N-((1r,4r)-4-(3-chloro-4-cyanophenoxy)cyclohexyl)-6-(4-((4-(6-fluoro-2-(3-methyl-2,6-dioxopiperidin-3-yl)-1,3-dioxoisoindolin-5-yl)piperazin-1-yl)methyl)piperidin-1-yl)pyridazine-3-carboxamide] |
| < 1 | CCN(CC1CCN(c2cnc(C(=O)N[C@H]3CC[C@H](Oc4ccc(C#N)c(OC)c4)CC3)cn2)CC1)[C@H]1C[C@H](Oc2ccc3c(c2)C(=O)N(C2CCC(=O)NC2=O)C3=O)C1 (stereo partly shown) [Compound 33, N-((1r,4r)-4-(4-cyano-3-methoxyphenoxy)cyclohexyl)-5-(4-((((1r,3r)-3-((2-(2,6-dioxopiperidin-3-yl)-1,3-dioxoisoindolin-5-yl)oxy)cyclobutyl)(ethyl)amino)methyl)piperidin-1-yl)pyrazine-2-carboxamide] |
| > 100 | COc1cc(O[C@@H]2CC[C@H](NC(=O)c3cnc(N4CCC(CN(C(C)C)[C@H]5C[C@H](Oc6ccc7c(c6)C(=O)N(C6CCC(=O)NC6=O)C7=O)C5)CC4)cn3)C2)ccc1C#N (stereo partly drawn) [Compound 11, N-((1S,3R)-3-(4-cyano-3-methoxyphenoxy)cyclopentyl)-5-(4-((((1r,3S)-3-((2-(2,6-dioxopiperidin-3-yl)-1,3-dioxoisoindolin-5-yl)oxy)cyclobutyl) (isopropyl)amino)methyl)piperidin-1-yl)pyrazine-2-carboxamide] |
| < 1 | CC(C)N(CC1CCN(c2cnc(C(=O)N[C@H]3CC[C@H](Oc4ccc(C#N)c(Cl)c4)CC3)cn2)CC1)[C@H]1CC[C@H](Oc2ccc3c(c2)C(=O)N(C2CCC(=O)NC2=O)C3=O)CC1 (stereo partly shown) [Compound 35, N-((1r,4r)-4-(3-chloro-4-cyanophenoxy)cyclohexyl)-5-(4-((((1r,4r)-4-((2-(2,6-dioxopiperidin-3-yl)-1,3-dioxoisoindolin-5-yl)oxy)cyclohexyl) (isopropyl)amino)methyl)piperidin-1-yl)pyrazine-2-carboxamide] |
| < 1 | COCCN(CC1CCN(c2cnc(C(=O)N[C@H]3CC[C@H](Oc4ccc(C#N)c(Cl)c4)CC3)cn2)CC1)[C@H]1C[C@H](Oc2ccc3c(c2)C(=O)N(C2CCC(=O)NC2=O)C3)C1 (stereo partly shown) [Compound 24, N-((1r,4r)-4-(3-chloro-4-cyanophenoxy)cyclohexyl)-5-(4-((((1r,3r)-3-((2-(2,6-dioxopiperidin-3-yl)-3-oxoisoindolin-5-yl)oxy)cyclobutyl)(2-methoxyethyl)amino)methyl)piperidin-1-yl)pyrazine-2-carboxamide] |
| > 100 | CC(C)N(CC1CCN(c2cnc(C(=O)N[C@H]3CC[C@H](Oc4ccc(C#N)c(Cl)c4)CC3)cn2)CC1)[C@H]1C[C@H](Oc2ccc3c(c2)C(=O)N([C@@H]2C(=O)NC(=O)C[C@@H]2C)C3=O)C1 [Compound 76, N-((1r,4r)-4-(3-chloro-4-cyanophenoxy)cyclohexyl)-5-(4-((isopropyl((1S,3r)-3-((2-((3S,4S)-4-methyl-2,6-dioxopiperidin-3-yl)-1,3-dioxoisoindolin-5-yl)oxy)cyclobutyl)amino)methyl)piperidin-1-yl)pyrazine-2-carboxamide] |

Same assay, conditions: degradation of AR ELISA in LNCaP and/or VCaP cells; Table 2C; read-out: DC50 Code*

| DC50 [nM] | Structure (SMILES) |
| --- | --- |
| 1 to 10 | Cc1cc(O[C@H]2C(C)(C)[C@H](NC(=O)c3ccc(N4CCC(CN(C(C)C)[C@H]5C[C@H](Oc6ccc7c(c6)C(=O)N(C6CCC(=O)NC6=O)C7=O)C5)CC4)cn3)C2(C)C)cc(C)c1C#N (stereo partly shown) [compound 128, N-((1r,3r)-3-(4-cyano-3,5-dimethylphenoxy)-2,2,4,4-tetramethylcyclobutyl)-5-(4-((((1r,3r)-3-((2-(2,6-dioxopiperidin-3-yl)-1,3-dioxoisoindolin-5-yl)oxy)cyclobutyl) (isopropyl)amino)methyl)piperidin-1-yl)picolinamide] |
| < 1 | CCc1c(O[C@H]2C[C@H](N(CC3CCN(c4cnc(C(=O)N[C@H]5C(C)(C)[C@H](Oc6ccc(C#N)c(Cl)c6)C5(C)C)cn4)CC3)C(C)C)C2)ccc2c1CN(C1CCC(=O)NC1=O)C2=O (stereo partly shown) [compound 120, N-((1r,3r)-3-(3-chloro-4-cyanophenoxy)-2,2,4,4-tetramethylcyclobutyl)-5-(4-((((1r,3r)-3-((2-(2,6-dioxopiperidin-3-yl)-4-ethyl-1-oxoisoindolin-5-yl)oxy)cyclobutyl) (isopropyl)amino)methyl)piperidin-1-yl)pyrazine-2-carboxamide] |
| < 1 | COc1cc(O[C@H]2C(C)(C)[C@H](NC(=O)c3ccc(N4CC(CN(C(C)C)[C@H]5C[C@H](Oc6ccc7c(c6)C(=O)N(C6CCC(=O)NC6=O)C7=O)C5)C4)cc3)C2(C)C)ccc1C#N (mixture of isomers) [compound 176, rac-N-((1r,3r)-3-(4-cyano-3-methoxyphenoxy)-2,2,4,4-tetramethylcyclobutyl)-4-(3-((((1r,3r)-3-((2-(2,6-dioxopiperidin-3-yl)-1,3-dioxoisoindolin-5-yl)oxy)cyclobutyl) (isopropyl)amino)methyl)azetidin-1-yl)benzamide] |
| < 1 | Cc1cc(O[C@H]2C(C)(C)[C@H](NC(=O)c3ccc(N4CCC(CN(CCO)[C@H]5C[C@H](Oc6ccc7c(c6)C(=O)N(C6CCC(=O)NC6=O)C7=O)C5)CC4)cc3)C2(C)C)cc(C)c1C#N (mixture of isomers) [compound 225, rac-N-((1r,3r)-3-(4-cyano-3,5-dimethylphenoxy)-2,2,4,4-tetramethylcyclobutyl)-4-(4-((((1r,3r)-3-((2-(2,6-dioxopiperidin-3-yl)-1,3-dioxoisoindolin-5-yl)oxy)cyclobutyl)(2-hydroxyethyl)amino)methyl)piperidin-1-yl)benzamide] |
| < 1 | COCCN(CC1CCN(c2cnc(C(=O)N[C@H]3C(C)(C)[C@H](Oc4ccc(C#N)c(OC)c4)C3(C)C)cn2)CC1)[C@H]1C[C@H](Oc2ccc3c(c2)C(=O)N(C2CCC(=O)NC2=O)C3=O)C1 (stereo partly shown) [compound 116, N-((1r,3r)-3-(4-cyano-3-methoxyphenoxy)-2,2,4,4-tetramethylcyclobutyl)-5-(4-((((1r,3r)-3-((2-(2,6-dioxopiperidin-3-yl)-1,3-dioxoisoindolin-5-yl)oxy)cyclobutyl)(2-methoxyethyl)amino)methyl)piperidin-1-yl)pyrazine-2-carboxamide] |
| < 1 | COCCOCCOCCOCCN(CC1CCN(c2ncc(C(=O)N[C@H]3C(C)(C)[C@H](Oc4cc(C)c(C#N)c(C)c4)C3(C)C)cn2)CC1)[C@H]1C[C@H](Oc2ccc3c(c2)C(=O)N(C2CCC(=O)NC2=O)C3=O)C1 (stereo partly shown) [compound 145, N-((1r,3r)-3-(4-cyano-3,5-dimethylphenoxy)-2,2,4,4-tetramethylcyclobutyl)-2-(4-(2-((1r,3r)-3-((2-(2,6-dioxopiperidin-3-yl)-1,3-dioxoisoindolin-5-yl)oxy)cyclobutyl)-5,8,11,14-tetraoxa-2-azapentadecyl)piperidin-1-yl)pyrimidine-5-carboxamide] |
| < 1 | CC(C)N(CC1CCN(c2cnc(C(=O)N[C@H]3C(C)(C)[C@H](Oc4ccc(C#N)c(Cl)c4)C3(C)C)cn2)CC1)[C@H]1C[C@H](Oc2cccc3c2CN(C2CCC(=O)NC2=O)C3=O)C1 (mixture of isomers) [compound 208, rac-N-((1r,3r)-3-(3-chloro-4-cyanophenoxy)-2,2,4,4-tetramethylcyclobutyl)-5-(4-((((1r,3r)-3-((2-(2,6-dioxopiperidin-3-yl)-1-oxoisoindolin-4-yl)oxy)cyclobutyl) (isopropyl)amino)methyl)piperidin-1-yl)pyrazine-2-carboxamide] |
